Results: patent US20240041042A1, “1-(PYRIDYL)-5-AZINYLPYRAZOLE DERIVATIVES, AND THEIR USE FOR CONTROL OF UNDESIRED PLANT GROWTH” (Bayer Aktiengesellschaft, priority 2020, published 2024)
Read-outs that look alike come from different tables or passages of the source.

How the values were obtained:
Assay type in all cases: in vivo
Brassica napus (BRSNW) = details: crop plant compatibility, in comparison to untreated controls
In short: (§1)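 Scoring: visual, % of untreated control, about 3 weeks after a pre-emergence application to the soil surface. Application used WP or EC formulations diluted in water with 0.5% additive at 600 l/ha; dosage levels are marked by suffixes a, b and c.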

Oryza sativa (ORYSA) [1] = details: pre-emergence, crop plant compatibility, in comparison to untreated controls
In short: as §1

[2] = tested on: Triticum aestivum (TRZAS); details: pre-emergence, crop plant compatibility, in comparison to untreated controls
In short: as §1

Zea mays (ZEAMX) [3] = details: pre-emergence, crop plant compatibility, in comparison to untreated controls
In short: as §1

Oryza sativa (ORYSA) [4] = details: crop plant compatibility
In short: (§2)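 Visual rating (% effect vs. untreated plants; 100% = plant death) made about 3 weeks after treatment. Plants had been sprayed at one-leaf stage, 2–3 weeks post-sowing, with aqueous WP/EC preparations containing 0.5% additive, 600 l/ha water volume; a, b, c mark dose levels.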

[5] = tested on: Triticum aestivum (TRZAS); details: crop plant compatibility, effect vs untreated controls
In short: as §2

Zea mays (ZEAMX) [6] = details: for Post-emergence action against ZEAMX in % (crop plant compatibility): 20 g/ha, effect in comparison to untreated controls; for Post-emergence action against ZEAMX in %: crop plant compatibility, 80 g/ha, effect vs untreated controls
In short: as §2

Glycine max (GLXMA) [7] = experiment: Post-emergence crop plant compatibility, GLXMA; details: post-emergence, effect in comparison to untreated controls
Procedure: Seeds of monocotyledonous and dicotyledonous weeds and crop plants are placed in sandy loam in plastic or organic planting pots, covered with soil and cultivated in a greenhouse under controlled growth conditions. 2 to 3 weeks after sowing, the test plants are treated at the one-leaf stage. The compounds of the invention, formulated in the form of wettable powders (WP) or as emulsion concentrates (EC), are then sprayed onto the green parts of the plants as aqueous suspension or emulsion with addition of 0.5% additive at a water application rate of 600 l/ha (converted). After the test plants have been kept in the greenhouse under optimum growth conditions for about 3 weeks, the activity of the preparations is rated visually in comparison to untreated controls. For example, 100% activity=the plants have died, 0% activity=like control plants.
The observed effects on selected crop plants are reported here in comparison to the untreated controls (values in %). The appendices “a”, “b” and “c” give differentiation by dosage used with otherwise the same crop plants tested.

[8] = tested on: Echinochloa crus-galli (ECHCG); experiment: Pre-emergence herbicidal action against ECHCG; details: dosage 320 g/ha
In short: (§3)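 Herbicide applied to soil before seedling emergence, at 600 l/ha spray volume with 0.5% additive and rates up to 320 g/ha. Evaluation: visual percentage effect, about 3 weeks later, greenhouse-grown pots compared with untreated ones.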

[9] = tested on: Matricaria inodora (MATIN); experiment: Pre-emergence herbicidal action against MATIN; details: dosage 320 g/ha
In short: as §3

Setaria viridis (SETVI) [10] = experiment: Pre-emergence herbicidal action against SETVI; details: dosage 320 g/ha
In short: as §3

Glycine max (GLXMA) [11] = details: pre-emergence, 80 g/ha, crop plant compatibility, in comparison to untreated controls
In short: as §1

[12] = tested on: Echinochloa crus-galli (ECHCG); experiment: Post-emergence herbicidal action against ECHCG; details: dosage 320 g/ha
In short: (§4)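 Doses of 320 g/ha or lower, suffixes a, b and c marking different dosages, were applied post-emergence at the one-leaf stage in 600 l/ha water with 0.5% additive. Damage was assessed visually after about 3 weeks in the greenhouse.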

Viola tricolor (VIOTR) [13] = experiment: Post-emergence herbicidal action against VIOTR; details: 320 g/ha
In short: as §4

[14] = tested on: Alopecurus myosuroides (ALOMY); experiment: Pre-emergence herbicidal action against ALOMY; details: 320 g/ha; scored visually after about 3 weeks; 100% = plants have died
In short: as §3

[15] = tested on: Digitaria sanguinalis (DIGSA); experiment: Pre-emergence herbicidal action against DIGSA; details: dosage 320 g/ha
In short: as §3

Viola tricolor (VIOTR) [16] = experiment: Pre-emergence herbicidal action against VIOTR
In short: as §3

[17] = tested on: Alopecurus myosuroides (ALOMY); experiment: Post-emergence herbicidal action against ALOMY; details: 80 g/ha, visual rating about 3 weeks after treatment vs untreated controls (100% = plants have died, 0% = like control plants)
In short: as §4

Setaria viridis (SETVI) [18] = experiment: Post-emergence herbicidal action against SETVI; details: dosage 80 g/ha
In short: as §4

[19] = 20 g/ha, effect vs untreated controls
[20] = 80 g/ha, effect in comparison to untreated controls

| SMILES | Pre-emergence action against BRSNW in % (Brassica napus (BRSNW); 80 g/ha) [%] | Pre-emergence action against ORYSA in % (Oryza sativa (ORYSA) [1]; 80 g/ha) [%] | Pre-emergence action against ORYSA in % (Oryza sativa (ORYSA) [1]; 320 g/ha) [%] | Pre-emergence action against TRZAS in % ([2]; 80 g/ha) [%] | Pre-emergence action against TRZAS in % ([2]; 320 g/ha) [%] | Pre-emergence action against ZEAMX in % (Zea mays (ZEAMX) [3]; 80 g/ha) [%] | Pre-emergence action against ZEAMX in % (Zea mays (ZEAMX) [3]; 320 g/ha) [%] | Post-emergence action against ORYSA in % (Oryza sativa (ORYSA) [4]; [19]) [%] | Post-emergence action against ORYSA in % (Oryza sativa (ORYSA) [4]; [20]) [%] | Post-emergence action against TRZAS in % ([5]; 20 g/ha) [%] | Post-emergence action against TRZAS in % ([5]; 80 g/ha) [%] | Post-emergence action against ZEAMX in % (crop plant compatibility) (Zea mays (ZEAMX) [6]) [%] | Post-emergence action against ZEAMX in % (Zea mays (ZEAMX) [6]) [%] | Post-emergence action against GLXMA in % (Glycine max (GLXMA) [7]; 20 g/ha) [%] | Post-emergence action against GLXMA in % (Glycine max (GLXMA) [7]; 80 g/ha) [%] | other results |
| --- | --- | --- | --- | --- | --- | --- | --- | --- | --- | --- | --- | --- | --- | --- | --- | --- |
| COC(=O)COc1nn(-c2ncccc2F)c(-c2cncc(F)c2)c1Br [Example I-49] | 10 | 10 | 20 | 0 | 0 | 0 | 0 | 0 | 10 | 0 | 10 | 0 | 10 | 10 |  |  |
| CCOC(=O)CCNC(=O)CSc1nn(-c2ccccn2)c(-c2cncc(F)c2)c1Br [Example I-82] | 20 | 0 |  | 0 | 20 |  |  |  | 20 |  |  |  |  |  | 0 | Pre-emergence action against ECHCG in % [8]: 90%; Pre-emergence action against MATIN in % [9]: 90%; Pre-emergence action against SETVI in % (Setaria viridis (SETVI) [10]): 90%; Pre-emergence action against BRSNW in % (Brassica napus (BRSNW); 320 g/ha): 20%; Pre-emergence action against GLXMA in % (Glycine max (GLXMA) [11]): 0%; Post-emergence action against ECHCG in % [12]: 80%; Post-emergence action against VIOTR in % (Viola tricolor (VIOTR) [13]): 80% |
| COC(=O)CN(C)C(=O)COc1nn(-c2ccccn2)c(-c2ccc(F)nc2)c1Br [Example I-114] |  | 0 | 0 | 20 |  | 10 | 20 | 0 | 0 | 0 | 0 | 0 | 0 | 0 | 0 | Pre-emergence action against ALOMY [14]: 100%; Pre-emergence action against DIGSA in % [15]: 90%; Pre-emergence action against VIOTR in % (Viola tricolor (VIOTR) [16]; 320 g/ha, Viola tricolor): 90%; Pre-emergence action against VIOTR in % (Viola tricolor (VIOTR) [16]; dosage 80 g/ha): 80%; Post-emergence action against ALOMY in % [17]: 90%; Post-emergence action against SETVI in % (Setaria viridis (SETVI) [18]): 80% |
